Test results published in patent US7785828B1 (priority 2003, dated 2010).
Read-outs that look alike come from different tables or passages of the source.

Experiments:
Fusarium graminearum [1] = assay type: cell-based
Fusarium graminearum [2] = assay type: cell-based
Septoria tritici [3] = assay type: cell-based
Mycosphaerella fijiensis = assay type: cell-based
Fusarium graminearum [4] = test system: Fusarium graminearum; design: species or system wheat; details: in vivo
Septoria tritici [5] = assay type: cell-based; design: key: + indicates a 1- to 5-fold improvement in activity compared to a reference defensin protein; ++ indicates a >5- to 10-fold improvement; +++ indicates a >10-fold improvement; “0” indicates no activity detected
[6] = Measurement taken at 72 hours after inoculation, fold improvement compared to DmAMP1
[7] = Table 2C (mixed diversity library), improvement compared to reference defensin protein DmAMP
[8] = Measurement taken at 144 hours after inoculation, fold improvement compared to DmAMP1
[9] = Table 2B (Dm-AMP1 based libraries), improvement compared to reference defensin protein (Rs-AFP2 for Table 2B [sic])

## DGVKLCERPSQTWTGNCGNTKHCDKQCKNWEKAKHGACHVRNGKWKCFCYFNC (Defensin like) [L7-457]
Fusarium graminearum [1]; [6]
  Antifungal activity, Fusarium graminearum (improvement compared to DmAMP1): + (+ indicating 1- to 5-fold improvement compared to DmAMP1)
Fusarium graminearum [2]; [7]
  Activity (1): antifungal activity of the NP against Fusarium graminearium: +++ (+++ indicates a >10-fold improvement)
Septoria tritici [3]; [8]
  Antifungal activity, Septoria tritici (improvement compared to DmAMP1): + (+ indicating 1- to 5-fold improvement compared to DmAMP1)
Mycosphaerella fijiensis; [8]
  Antifungal activity, Mycosphaerella fijiensis (improvement compared to DmAMP1): + (+ indicating 1- to 5-fold improvement compared to DmAMP1)

## DGVKLCERPSQTWTGNCGNTKHCDKQCRNWEGAKHGACHVRNGKWKCFCYFNC (Defensin like) [L7-39]
Fusarium graminearum [1]; [6]
  Antifungal activity, Fusarium graminearum (improvement compared to DmAMP1): + (+ indicating 1- to 5-fold improvement compared to DmAMP1)
Fusarium graminearum [2]; [7]
  Activity (1): antifungal activity of the NP against Fusarium graminearium: ++ (++ indicates a >5- to 10-fold improvement)
Septoria tritici [3]; [8]
  Antifungal activity, Septoria tritici (improvement compared to DmAMP1): + (+ indicating 1- to 5-fold improvement compared to DmAMP1)
Mycosphaerella fijiensis; [8]
  Antifungal activity, Mycosphaerella fijiensis (improvement compared to DmAMP1): + (+ indicating 1- to 5-fold improvement compared to DmAMP1)

## ELCEKASKTWSGNCGNTKHCDTQCKNWEGAKHGACHVRSGKHKCFCYFNC (Defensin like) [L3-135]
Fusarium graminearum [4]
  disease spread compared to NP or wildtype defensin expression level in the infected plant: clear inverse correlation between expression level and disease spread

## NLCERASKTWSGNCGNTKHCDNQCKNWEGAKHGACHVRNGKHKCFCYFNC [L6-28] (Defensin like)
Fusarium graminearum [4]
  disease spread compared to NP or wildtype defensin expression level in the infected plant: No clear correlation
Fusarium graminearum [1]
  Antifungal activity, Fusarium graminearum (improvement compared to DmAMP1): +++ (key: + indicating 1- to 5-fold improvement compared to DmAMP1; ++ indicating >5- to 10-fold improvement; +++ indicating >10-fold improvement)
Septoria tritici [3]
  Antifungal activity, Septoria tritici (improvement compared to DmAMP1): + (key: + indicating 1- to 5-fold improvement compared to DmAMP1; ++ indicating >5- to 10-fold improvement; +++ indicating >10-fold improvement)
Mycosphaerella fijiensis
  Antifungal activity, Mycosphaerella fijiensis (improvement compared to DmAMP1): + (key: + indicating 1- to 5-fold improvement compared to DmAMP1; ++ indicating >5- to 10-fold improvement; +++ indicating >10-fold improvement)

## NLCERASKTWTGNCGNTKHCDNQCKNWEGAKHGACHVRNGKWKCFCYFNC [L6-21] (Defensin like)
Fusarium graminearum [1]; [6]
  Antifungal activity, Fusarium graminearum (improvement compared to DmAMP1): +++ (+++ indicating >10-fold improvement)
Fusarium graminearum [2]; [9]
  Activity (1): antifungal activity of the NP against Fusarium graminearium: +++ (+++ indicates a >10-fold improvement)
Septoria tritici [3]; [8]
  Antifungal activity, Septoria tritici (improvement compared to DmAMP1): +++ (+++ indicating >10-fold improvement)
Mycosphaerella fijiensis; [8]
  Antifungal activity, Mycosphaerella fijiensis (improvement compared to DmAMP1): + (+ indicating 1- to 5-fold improvement compared to DmAMP1)

## NLCERASKTWTGNCGNTKHCDNQCKNWEGAKHGACHVRNGKWKCFCYFNC [L6-41] (Defensin like)
Fusarium graminearum [1]; [6]
  Antifungal activity, Fusarium graminearum (improvement compared to DmAMP1): + (+ indicating 1- to 5-fold improvement compared to DmAMP1)
Fusarium graminearum [2]; [9]
  Activity (1): antifungal activity of the NP against Fusarium graminearium: +++ (+++ indicates a >10-fold improvement)
Septoria tritici [3]; [8]
  Antifungal activity, Septoria tritici (improvement compared to DmAMP1): + (+ indicating 1- to 5-fold improvement compared to DmAMP1)
Mycosphaerella fijiensis; [8]
  Antifungal activity, Mycosphaerella fijiensis (improvement compared to DmAMP1): + (+ indicating 1- to 5-fold improvement compared to DmAMP1)

## NLCERASKTWTGNCGNTKHCDNQCKSWEGAKHGACHVRNGKHKCFCYFNC (Defensin like) [L9-33]
Fusarium graminearum [1]; [6]
  Antifungal activity, Fusarium graminearum (improvement compared to DmAMP1): +++ (+++ indicating >10-fold improvement)
Fusarium graminearum [2]; [9]
  Activity (1): antifungal activity of the NP against Fusarium graminearium: ++ (++ indicates a >5- to 10-fold improvement)
Septoria tritici [3]; [8]
  Antifungal activity, Septoria tritici (improvement compared to DmAMP1): +++ (+++ indicating >10-fold improvement)
Mycosphaerella fijiensis; [8]
  Antifungal activity, Mycosphaerella fijiensis (improvement compared to DmAMP1): ++ (++ indicating >5- to 10-fold improvement)

## NLCERASKTWTGNCGNTKHCDNQCRNWEGAKHGACHKRSGKWKCFCYFNC (Defensin like) [L9-15]
Fusarium graminearum [1]; [6]
  Antifungal activity, Fusarium graminearum (improvement compared to DmAMP1): ++ (++ indicating >5- to 10-fold improvement)
Fusarium graminearum [2]; [9]
  Activity (1): antifungal activity of the NP against Fusarium graminearium: +++ (+++ indicates a >10-fold improvement)
Septoria tritici [3]; [8]
  Antifungal activity, Septoria tritici (improvement compared to DmAMP1): ++ (++ indicating >5- to 10-fold improvement)
Mycosphaerella fijiensis; [8]
  Antifungal activity, Mycosphaerella fijiensis (improvement compared to DmAMP1): + (+ indicating 1- to 5-fold improvement compared to DmAMP1)

## NLCERASKTWTGNCGNTKHCDNQCRSWEGAKHGACHVRNGKHKCFCYFNC (Defensin like) [L6-75]
Fusarium graminearum [1]; [6]
  Antifungal activity, Fusarium graminearum (improvement compared to DmAMP1): +++ (+++ indicating >10-fold improvement)
Fusarium graminearum [2]; [9]
  Activity (1): antifungal activity of the NP against Fusarium graminearium: ++ (++ indicates a >5- to 10-fold improvement)
Septoria tritici [3]; [8]
  Antifungal activity, Septoria tritici (improvement compared to DmAMP1): +++ (+++ indicating >10-fold improvement)
Mycosphaerella fijiensis; [8]
  Antifungal activity, Mycosphaerella fijiensis (improvement compared to DmAMP1): + (+ indicating 1- to 5-fold improvement compared to DmAMP1)

## NLCERASKTWTGNCGNTKHCDTQCKNWEGAKHGACHKRNGKWKCFCYFNC (Defensin like) [L3-42]
Fusarium graminearum [1]; [6]
  Antifungal activity, Fusarium graminearum (improvement compared to DmAMP1): +++ (+++ indicating >10-fold improvement)
Fusarium graminearum [2]; [9]
  Activity (1): antifungal activity of the NP against Fusarium graminearium: +++ (+++ indicates a >10-fold improvement)
Septoria tritici [3]; [8]
  Antifungal activity, Septoria tritici (improvement compared to DmAMP1): ++ (++ indicating >5- to 10-fold improvement)
Mycosphaerella fijiensis; [8]
  Antifungal activity, Mycosphaerella fijiensis (improvement compared to DmAMP1): + (+ indicating 1- to 5-fold improvement compared to DmAMP1)

## NLCERASKTWTGNCGNTKHCDTQCKNWEGAKHGACHVRSGKHKCFCYFNC (Defensin like) [L6-58]
Fusarium graminearum [1]; [6]
  Antifungal activity, Fusarium graminearum (improvement compared to DmAMP1): +++ (+++ indicating >10-fold improvement)
Fusarium graminearum [2]; [9]
  Activity (1): antifungal activity of the NP against Fusarium graminearium: +++ (+++ indicates a >10-fold improvement)
Septoria tritici [3]; [8]
  Antifungal activity, Septoria tritici (improvement compared to DmAMP1): + (+ indicating 1- to 5-fold improvement compared to DmAMP1)
Mycosphaerella fijiensis; [8]
  Antifungal activity, Mycosphaerella fijiensis (improvement compared to DmAMP1): + (+ indicating 1- to 5-fold improvement compared to DmAMP1)

## NLCERASKTWTGNCGNTKHCDTQCKSWEGAKHGACHVRNGKHKCECYFNC (NLCERASKTWTGNCGNTKHCDTQCKSWEGAKHGACHVRNGKHKCFCYFNC; Defensin like) [L6-84]
Fusarium graminearum [1]; [6]
  Antifungal activity, Fusarium graminearum (improvement compared to DmAMP1): +++ (+++ indicating >10-fold improvement)
Fusarium graminearum [2]; [9]
  Activity (1): antifungal activity of the NP against Fusarium graminearium: +++ (+++ indicates a >10-fold improvement)
Septoria tritici [3]; [8]
  Antifungal activity, Septoria tritici (improvement compared to DmAMP1): + (+ indicating 1- to 5-fold improvement compared to DmAMP1)
Mycosphaerella fijiensis; [8]
  Antifungal activity, Mycosphaerella fijiensis (improvement compared to DmAMP1): +++ (+++ indicating >10-fold improvement)

## NLCERASKTWTGNCGNTKHCDTQCKSWEGAKHGACHVRNGKHKCFCYFNC (Defensin like) [L6-71]
Fusarium graminearum [1]; [6]
  Antifungal activity, Fusarium graminearum (improvement compared to DmAMP1): +++ (+++ indicating >10-fold improvement)
Fusarium graminearum [2]; [9]
  Activity (1): antifungal activity of the NP against Fusarium graminearium: +++ (+++ indicates a >10-fold improvement)
Septoria tritici [3]; [8]
  Antifungal activity, Septoria tritici (improvement compared to DmAMP1): + (+ indicating 1- to 5-fold improvement compared to DmAMP1)
Mycosphaerella fijiensis; [8]
  Antifungal activity, Mycosphaerella fijiensis (improvement compared to DmAMP1): + (+ indicating 1- to 5-fold improvement compared to DmAMP1)

## NLCERASKTWTGNCGNTKHCDTQCKSWESAKHGACHVRSGKHKCFCYFNC (Defensin like) [L3-64]
Fusarium graminearum [1]; [6]
  Antifungal activity, Fusarium graminearum (improvement compared to DmAMP1): +++ (+++ indicating >10-fold improvement)
Fusarium graminearum [2]; [9]
  Activity (1): antifungal activity of the NP against Fusarium graminearium: + (+ indicates a 1- to 5-fold improvement in activity compared to a reference defensin protein)
Septoria tritici [3]; [8]
  Antifungal activity, Septoria tritici (improvement compared to DmAMP1): ++ (++ indicating >5- to 10-fold improvement)
Mycosphaerella fijiensis; [8]
  Antifungal activity, Mycosphaerella fijiensis (improvement compared to DmAMP1): + (+ indicating 1- to 5-fold improvement compared to DmAMP1)

## QKLCEKPSRTWSGVCGNNNACKNQCIRLEKARHGSCNYRFPAHKCICYVPC (Defensin like) [L1-01]
Septoria tritici [5]
  Activity (2): antifungal activity against Septoria tritici: 0

## QKLCQKPSRTWSGVCGNNNACKNQCIRLEKARHGSCNYVFPAHKCICYFPC (Defensin like) [L2-12]
Fusarium graminearum [4]
  disease spread compared to NP or wildtype defensin expression level in the infected plant: A protective effect was also seen

## QKLCQRPSGTWSGVCMNNNACKNQCIRLEKAKHGSCNYVFPAHKCICYFPC (Defensin like) [L2-52]
Fusarium graminearum [4]
  disease spread compared to NP or wildtype defensin expression level in the infected plant: No clear correlation
